{
  "source": "patent US20100273144A1",
  "about": "“NOVEL USE OF GRP 94 IN VIRUS INFECTION” (priority 2008, published 2010)",
  "molecules": {"B1": {"name": "tumor necrosis-related apoptosis-inducing ligand (protein, UniProt P50591 1-281, looked up)", "Tumor necrosis factor ligand …": "MAMMEVQGGPSLGQTCVLIVIFTVLLQSLCVAVTYVYFTNELKQMQDKYSKSGIACFLKEDDSYWDPNDEESMNSPCWQVKWQLRQLVRKMILRTSEETISTVQEKQQNISPLVRERGPQRVAAHITGTRGRSNTLSSPNSKNEKALGRKINSWESSRSGHSFLSNLHLRNGELVIHEKGFYYIYSQTYFRFQEEIKENTKNDKQMVQYIYKYTSYPDPILLMKSARNSCWSKDAEYGLYSIYQGGIFELKENDRIFVSVTNEHLIDMDHEASFFGAFLVG"}},
  "key": {"IKKα/β": {"biological_target": "T1, IKKα/β (Homo sapiens, UniProt O14920+O15111)", "T1 construct": "were monitored using GRP94-overexpressing and control cell lines; endogenous in cells; host or cells: Huh-7 cells stably carrying pCDNA3.1 (control) or pCDNA3.1-GRP94", "T1 sequence (O15111 whole entry)": "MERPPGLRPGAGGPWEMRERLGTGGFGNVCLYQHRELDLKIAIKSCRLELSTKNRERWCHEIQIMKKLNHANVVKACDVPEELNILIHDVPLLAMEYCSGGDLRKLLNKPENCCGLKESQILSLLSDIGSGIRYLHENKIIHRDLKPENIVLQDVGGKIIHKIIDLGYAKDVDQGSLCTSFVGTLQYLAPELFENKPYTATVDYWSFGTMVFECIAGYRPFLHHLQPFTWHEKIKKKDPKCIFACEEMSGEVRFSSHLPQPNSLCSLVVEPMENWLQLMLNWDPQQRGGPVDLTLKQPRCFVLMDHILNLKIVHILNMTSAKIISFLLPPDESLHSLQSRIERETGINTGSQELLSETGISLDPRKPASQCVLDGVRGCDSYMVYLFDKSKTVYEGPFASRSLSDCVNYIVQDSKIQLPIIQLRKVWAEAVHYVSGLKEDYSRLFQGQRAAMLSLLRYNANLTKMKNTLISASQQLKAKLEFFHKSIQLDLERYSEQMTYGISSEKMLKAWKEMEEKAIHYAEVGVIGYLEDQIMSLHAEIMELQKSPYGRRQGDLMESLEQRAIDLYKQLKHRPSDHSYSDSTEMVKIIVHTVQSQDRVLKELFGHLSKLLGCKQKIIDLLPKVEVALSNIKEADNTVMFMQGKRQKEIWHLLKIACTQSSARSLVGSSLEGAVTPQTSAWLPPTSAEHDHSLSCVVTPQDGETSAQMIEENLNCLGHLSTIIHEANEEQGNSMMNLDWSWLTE", "T1 sequence (O14920 whole entry)": "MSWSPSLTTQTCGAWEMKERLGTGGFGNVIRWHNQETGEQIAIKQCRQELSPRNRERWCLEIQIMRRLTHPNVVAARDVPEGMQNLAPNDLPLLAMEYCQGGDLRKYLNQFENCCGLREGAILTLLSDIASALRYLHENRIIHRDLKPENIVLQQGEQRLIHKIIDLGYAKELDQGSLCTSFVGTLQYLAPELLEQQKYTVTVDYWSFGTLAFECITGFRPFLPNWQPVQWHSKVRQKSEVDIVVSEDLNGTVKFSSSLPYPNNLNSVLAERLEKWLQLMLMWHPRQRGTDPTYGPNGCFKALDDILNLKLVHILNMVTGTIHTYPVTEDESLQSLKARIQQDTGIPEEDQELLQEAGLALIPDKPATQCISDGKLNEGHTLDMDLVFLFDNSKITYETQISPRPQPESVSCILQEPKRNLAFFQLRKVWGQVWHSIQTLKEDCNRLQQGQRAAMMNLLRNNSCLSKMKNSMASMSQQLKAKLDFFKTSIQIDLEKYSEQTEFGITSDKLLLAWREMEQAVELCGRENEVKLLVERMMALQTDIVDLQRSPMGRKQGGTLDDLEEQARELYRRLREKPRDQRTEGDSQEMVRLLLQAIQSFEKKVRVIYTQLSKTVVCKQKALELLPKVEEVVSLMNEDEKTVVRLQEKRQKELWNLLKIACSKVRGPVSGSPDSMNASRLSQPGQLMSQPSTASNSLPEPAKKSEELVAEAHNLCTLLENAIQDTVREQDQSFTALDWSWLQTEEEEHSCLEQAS", "T1 sequence (Q9Y6K9 whole entry partner)": "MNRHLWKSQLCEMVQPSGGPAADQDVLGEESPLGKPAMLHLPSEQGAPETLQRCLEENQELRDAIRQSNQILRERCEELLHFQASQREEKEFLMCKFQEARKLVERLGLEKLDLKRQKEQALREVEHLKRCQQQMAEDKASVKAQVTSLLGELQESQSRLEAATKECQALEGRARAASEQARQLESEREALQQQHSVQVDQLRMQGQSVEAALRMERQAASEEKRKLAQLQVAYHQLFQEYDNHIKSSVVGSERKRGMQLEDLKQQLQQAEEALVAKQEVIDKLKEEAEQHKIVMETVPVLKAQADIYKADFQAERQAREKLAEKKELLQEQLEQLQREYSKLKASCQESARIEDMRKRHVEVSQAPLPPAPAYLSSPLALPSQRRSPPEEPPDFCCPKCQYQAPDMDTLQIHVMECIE", "test": "Effect of BAY11-7082 on expression of NF-κB-related survival genes, Western-blot, control and GRP94-overexpressing cells", "assay_type": "cell-based", "set-up": "dose or concentration left out as unconfirmed", "protocol": "Western-blot analysis—Proteins were resolved by 8% or 13.5% SDS-PAGE and transferred to nitrocellulose membranes (Amersham). The membranes were blocked overnight with 5% skimmed milk in Tris-buffered saline (TBS) [20 mM Tris-HCl (pH 7.5), 150 mM NaCl, 0.5% Tween-20] and then incubated with monoclonal antibodies against actin (1:5000), GRP94 (1:1000), Hsp90 (1:1000), TRAF2 (1:500), XIAP (1:1000), survivin (1:500), glyceraldehyde-3-phosphate dehydrogenase (GAPDH) (1:5000) and IKKα/β for 5 hours. A monoclonal anti-human actin antibody was used as a control. […]\nThe inventors tried to determine the stage of the signaling cascade at which NF-κB is activated by GRP94. […] The effects of BAY11-7082, a specific inhibitor of IKKα/β, on the expression of NF-κB-related gene products were monitored using GRP94-overexpressing and control cell lines, and the obtained results are shown in FIG. 4B. […] Effect of abrogation of IKKα/β activity by BAY11-7082 on the expression of NF-κB-related survival genes was monitored by Western-blot analysis; lanes 2 and 4 show results with and lanes 1 and 3 show results without treatment of the drug […] for 4 hrs on control (lanes 1 and 2) and GRP94-overexpressing (lanes 3 and 4) cells."}, "IκBα": {"system": "IκBα", "test": "Time-course analysis of IκBα levels after TNF-α treatment, Western-blot, Huh-7 cells with or without HCV replicons", "assay_type": "cell-based", "conditions": "TNF-α 10 ng/ml", "protocol": "Western-blot analysis—Proteins were resolved by 8% or 13.5% SDS-PAGE and transferred to nitrocellulose membranes (Amersham). The membranes were blocked overnight with 5% skimmed milk in Tris-buffered saline (TBS) [20 mM Tris-HCl (pH 7.5), 150 mM NaCl, 0.5% Tween-20] and then incubated with monoclonal antibodies against actin (1:5000), GRP94 (1:1000), Hsp90 (1:1000), TRAF2 (1:500), XIAP (1:1000), survivin (1:500), glyceraldehyde-3-phosphate dehydrogenase (GAPDH) (1:5000) and IKKα/β for 5 hours. A monoclonal anti-human actin antibody was used as a control. Horseradish-peroxidase-conjugated anti-mouse, anti-goat or anti-rabbit immunoglobulin Gs (IgGs) were used as secondary antibodies (1:5000), and bands were visualized by enhanced chemiluminescence (ECL) according to the manufacturer's instructions (Amersham).\nThe protein level of IκBα in control Huh-7 cells, Huh-7 cells containing replicons FK-E1 (UAA), and FK-E2(UAA) were measured by Western-blot assays with time; this is because the phosphorylation-dependent degradation of IκBs is an essential step for NF-κB activation after TNF-α treatment. […] Within 5 minutes of TNF-α treatment, IκBα proteins were not detected in the control Huh-7 cells (FIG. 1C). In Huh-7 cells containing the replicon FK-E1(UAA) that expresses NS3-5B, core and E1 proteins, the degradation of IκBα was delayed by up to 10 minutes after treatment with TNF-α (FIG. 1C)."}, "NF-κB": {"system": "NF-κB", "test": "NF-κB reporter assay (firefly luciferase under NF-κB response element) in 293T cells", "assay_type": "cell-based", "conditions": "10 ng TNF-α for 12 hours, vs mock-treated", "protocol": "(§1) Luciferase assay—Luciferase assays were performed using a luciferase assay kit (Promega), according to the manufacturer's instructions. The luciferase activities in the cells were normalized by the protein concentrations, as determined by the Bradford assay.\nThe activation of NF-κB by overproduction of GRP94 was investigated by measuring the activity of a reporter gene (firefly luciferase) under the control of the […] response element (FIG. 4A). […] 293T cells were transfected with pNF-κB-Luc, which encodes the firefly luciferase gene under the control of a NF-κB response element, with control vector plasmid (pCDNA3.1) (lane 3) or with the plasmid pCDNA3.1-GRP94, which produces. GRP94 (lane 4). Control plasmid pRLCMV-Luc (Promega) was also cotransfected to normalize transfection efficiency. After incubation of the cells for 48 hours, cells were further incubated in serum-free medium for 6 hours, mock-treated (lane 1), or treated with 10 ng TNF-α for 12 hours (lane 2), before luciferase activities were measured. Three independent experiments were performed and the relative values (TNF-α-treated vs mock-treated, and GRP94-overexpressed vs mock-expressed) are shown."}, "HCV-infected Huh-7 cells": {"system": "HCV-infected Huh-7 cells", "test": "TRAIL-induced PARP cleavage in mock-infected and HCV (JFH 5a-Rluc)-infected Huh-7 cells", "assay_type": "cell-based", "conditions": "TRAIL for 18 hours", "protocol": "Huh-7 cells were transfected with a control siRNA (lanes 1, 2, 5 and 6) and a siRNA against GRP94 (lanes 3, 4, 7 and 8) and incubated for 48 hours. The siRNA-treated cells were mock-infected (lanes 1-4) or infected with HCV (JFH 5a-Rluc) (lanes 5-8) and incubated for 24 hours. After infection, the cells were mock-treated (lanes 1, 3, 5 and 7) or treated with TRAIL (lanes 2, 4, 6 and 8) for 18 hours. These cells were used to monitor protein levels (upper panel) and virus infection (lower panel). The levels of PARP, GRP94 and actin were monitored by Western-blot analysis. The HCV infectivity levels were assessed by measuring luciferase activities. Experiments were performed six times with triplicate samples each, and mean and standard deviation values of the experiments are shown as columns and lines, respectively."}, "[1]": {"system": "control, GRP94-overexpressing and E2-expressing cells", "test": "TRAIL-induced apoptosis monitored by cleavage of PARP (Western-blot) in control, GRP94-overexpressing and E2-expressing cells", "assay_type": "cell-based", "conditions": "200 ng/ml TRAIL for 2 hours", "description": "The role of GRP94 in inhibition of apoptosis during HCV infection was investigated using a siRNA against GRP94 and a control siRNA, the GRP94-overexpressing, and the E2-expressing cell lines (FIG. 5). The strong apoptosis inducer TRAIL was used to mimic the physiological conditions of a virus infection that induces TRAIL expression. Cleavage of PARP, which is a substrate of activated caspase-3/7, was used to monitor the process of apoptosis. The obtained results were shown in FIG. 5, wherein control (lanes 1-4), GRP94-overexpressing (lanes 5-8), and E2-expressing (lanes 9-12) cells were mock-treated (lanes 1, 3, 5, 7, 9 and 11) or treated with 200 ng/ml TRAIL (lanes 2, 4, 6, 8, 10 and 12) for 2 hours after treatment with a control siRNA (lanes 3, 4, 7, 8, 11 and 12) or a siRNA against GRP94 (lanes 1, 2, 5, 6, 9 and 10). The levels of uncleaved PARP, GRP94, HCV E2 and actin were monitored by Western-blot analysis."}, "HCV strain JFH 5a-Rluc": {"system": "HCV strain JFH 5a-Rluc", "test": "HCV infectivity assessed by luciferase activity of JFH 5a-Rluc in Huh-7 cells", "assay_type": "cell-based, hepatitis C virus", "conditions": "siRNA 48 hours before infection, TRAIL 18 hours after 24 hours infection", "protocol": "as §1\nTo confirm that the anti-apoptotic activity of E2 is induced by GRP94 and NF-κB-related gene products in HCV-infected cells, the levels of GRP94, XIAP, TRAF2, FLIP and Bcl-xL were monitored using a HCV-infection system. The infectious JFH1 strain of HCV (Wakita T, Pietschmann T, Kato T, Date T, Miyamoto M, Zhao Z, Murthy K, et al. Production of infectious hepatitis C virus in tissue culture from a cloned viral genome. Nat Med 2005; 11:791-796) and a JFH1 derivative known as JFH5a-Rluc with a reporter gene (Renilla luciferase) in the NS5A of HCV (FIG. 6A) that is suitable for quantification of HCV infection (Kim C S, Jung J H, Wakita T, Yoon S K, Jang S K. Monitoring the Antiviral Effect of Alpha Interferon on Individual Cells. J. Virol. 2007; 81:8814-8820) were used. […]\nHuh-7 cells were transfected with a control siRNA (lanes 1, 2, 5 and 6) and a siRNA against GRP94 (lanes 3, 4, 7 and 8) and incubated for 48 hours. […] The levels of PARP, GRP94 and actin were monitored by Western-blot analysis. The HCV infectivity levels were assessed by measuring luciferase activities. […]"}},
  "data": [
    {"molecule": "Cc1ccc(S(=O)(=O)/C=C/C#N)cc1", "note": "[BAY11-7082]", "values": [
      {"measurement": "levels of GRP94 protein", "setting": "IKKα/β", "result": "reduced"},
      {"measurement": "levels of XIAP, TRAF2, survivin, and IKKα/β", "setting": "IKKα/β; GRP94-expressing and control cells", "result": "markedly reduced"}
    ]},
    {"molecule": "tumor necrosis factor (TNF)-α [TNF-α]", "values": [
      {"measurement": "time after TNF-α treatment at which residual IκBα proteins were not detected", "setting": "IκBα; FK-E2(UAA)-containing Huh-7 cells", "result": "≤ 5", "unit": "min"},
      {"measurement": "delay of degradation of IκBα after treatment with TNF-α", "setting": "IκBα; Huh-7 cells containing replicon FK-E1(UAA)", "result": "up to 10 minutes"},
      {"measurement": "time after TNF-α treatment at which IκBα proteins were not detected", "setting": "IκBα; control Huh-7 cells", "result": "≤ 5", "unit": "min"},
      {"measurement": "increase in NF-κB reporter activity", "setting": "NF-κB", "result": "about 10 fold"}
    ]},
    {"molecule": "B1", "values": [
      {"measurement": "levels of PARP cleavage", "setting": "HCV-infected Huh-7 cells; HCV-infected Huh-7 cells", "result": "almost no reductions"},
      {"measurement": "cleavage of PARP", "setting": "HCV-infected Huh-7 cells; mock-infected Huh-7 cells", "result": "observed"},
      {"measurement": "cleavage of PARP", "setting": "[1]; GRP94-overexpressing and HCV-E2-expressing cells", "result": "blocked"},
      {"measurement": "cleavage of PARP", "setting": "[1]; control cells, with control siRNA or GRP94 siRNA", "result": "observed"},
      {"measurement": "reduction of infectivity of HCV", "setting": "HCV strain JFH 5a-Rluc", "result": "about 20%"}
    ]}
  ]
}
